Experimental data from the kinase profiling compilation of Christmann-Franck et al. (2016).

What was measured:
Assay in all cases: radiometric filter-binding kinase assay
PIM2 (human) = PIM2 (human) (UniProt Q9P1W9); conditions: compound 10.0 µM
PAK7 (human) = PAK7 (human) (UniProt Q9P286)
IKBKB (human) = IKBKB (human) (UniProt O14920)
RPS6KA5 KD1 KD2 (human) = RPS6KA5 KD1 KD2 (human) (UniProt O75582)
NEK6 (human) = NEK6 (human) (UniProt Q9HC98)
IKBKE (human) = IKBKE (human) (UniProt Q14164)
MAPK3 (human) = MAPK3 (human) (UniProt P27361)
BTK (human) = BTK (human) (UniProt Q06187)
EPHA4 (human) = EPHA4 (human) (UniProt P54764)
MAP2K1 (human) = MAP2K1 (human) (UniProt Q02750)
RIPK2 (human) = RIPK2 (human) (UniProt O43353)
NEK2 (human) = NEK2 (human) (UniProt P51955)
MAPK15 (human) = MAPK15 (human) (UniProt Q8TD08)
CHEK2 (human) = CHEK2 (human) (UniProt O96017)
RPS6KA1 KD1 KD2 (human) = RPS6KA1 KD1 KD2 (human) (UniProt Q15418)
SRC (human) = SRC (human) (UniProt P12931)
INSRR (human) = INSRR (human) (UniProt P14616)
MAPK1 (human) = MAPK1 (human) (UniProt P28482)
RPS6KA3 KD1 KD2 (human) = RPS6KA3 KD1 KD2 (human) (UniProt P51812)
CSNK1D (human) = CSNK1D (human) (UniProt P48730)
CSK (human) = CSK (human) (UniProt P41240)
MAPKAPK3 (human) = MAPKAPK3 (human) (UniProt Q16644)
PRKAA1 or PRKAA2 (rat) = conditions: accession and sequence are those of the human protein
PLK1 (human) = PLK1 (human) (UniProt P53350)
FLT1 (human) = FLT1 (human) (UniProt P17948)
EPHB1 (human) = EPHB1 (human) (UniProt P54762)
CDK2 CCNA2 (human) = CDK2 CCNA2 (human) (UniProt P20248+P24941)
TTK (human) = TTK (human) (UniProt P33981)
[1] = test system: RPS6KB1 (human), P23443 [T412E]
[2] = test system: AKT2 (human), P31751 [S474D]
EPHB4 (human) = EPHB4 (human) (UniProt P54760)
SYK (human) = SYK (human) (UniProt P43405)
PRKACA (human) = PRKACA (human) (UniProt P17612); conditions: compound 1.0 µM
MKNK2 (human) = MKNK2 (human) (UniProt Q9HBH9)
MAPK14 (human) = MAPK14 (human) (UniProt Q16539)

Sequence of BTK (human) (Q06187 whole entry, looked up): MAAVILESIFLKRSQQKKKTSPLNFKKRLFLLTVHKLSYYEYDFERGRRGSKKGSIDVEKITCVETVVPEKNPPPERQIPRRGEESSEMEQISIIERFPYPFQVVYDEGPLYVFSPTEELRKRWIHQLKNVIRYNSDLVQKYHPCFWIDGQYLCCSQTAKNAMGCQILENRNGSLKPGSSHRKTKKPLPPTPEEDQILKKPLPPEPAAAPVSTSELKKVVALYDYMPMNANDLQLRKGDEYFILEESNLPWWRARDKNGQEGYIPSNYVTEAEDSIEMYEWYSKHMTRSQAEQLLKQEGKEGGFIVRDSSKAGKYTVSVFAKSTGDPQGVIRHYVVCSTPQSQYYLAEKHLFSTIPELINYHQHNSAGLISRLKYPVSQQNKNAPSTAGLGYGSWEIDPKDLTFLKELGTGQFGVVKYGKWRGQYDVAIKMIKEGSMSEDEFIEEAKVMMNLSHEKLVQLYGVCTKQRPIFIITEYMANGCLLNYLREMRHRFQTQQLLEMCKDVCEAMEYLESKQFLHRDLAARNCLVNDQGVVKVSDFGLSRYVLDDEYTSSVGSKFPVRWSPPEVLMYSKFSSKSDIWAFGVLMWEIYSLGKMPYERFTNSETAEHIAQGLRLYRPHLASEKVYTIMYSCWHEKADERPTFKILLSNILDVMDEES
Sequence of INSRR (human) (P14616 whole entry, looked up): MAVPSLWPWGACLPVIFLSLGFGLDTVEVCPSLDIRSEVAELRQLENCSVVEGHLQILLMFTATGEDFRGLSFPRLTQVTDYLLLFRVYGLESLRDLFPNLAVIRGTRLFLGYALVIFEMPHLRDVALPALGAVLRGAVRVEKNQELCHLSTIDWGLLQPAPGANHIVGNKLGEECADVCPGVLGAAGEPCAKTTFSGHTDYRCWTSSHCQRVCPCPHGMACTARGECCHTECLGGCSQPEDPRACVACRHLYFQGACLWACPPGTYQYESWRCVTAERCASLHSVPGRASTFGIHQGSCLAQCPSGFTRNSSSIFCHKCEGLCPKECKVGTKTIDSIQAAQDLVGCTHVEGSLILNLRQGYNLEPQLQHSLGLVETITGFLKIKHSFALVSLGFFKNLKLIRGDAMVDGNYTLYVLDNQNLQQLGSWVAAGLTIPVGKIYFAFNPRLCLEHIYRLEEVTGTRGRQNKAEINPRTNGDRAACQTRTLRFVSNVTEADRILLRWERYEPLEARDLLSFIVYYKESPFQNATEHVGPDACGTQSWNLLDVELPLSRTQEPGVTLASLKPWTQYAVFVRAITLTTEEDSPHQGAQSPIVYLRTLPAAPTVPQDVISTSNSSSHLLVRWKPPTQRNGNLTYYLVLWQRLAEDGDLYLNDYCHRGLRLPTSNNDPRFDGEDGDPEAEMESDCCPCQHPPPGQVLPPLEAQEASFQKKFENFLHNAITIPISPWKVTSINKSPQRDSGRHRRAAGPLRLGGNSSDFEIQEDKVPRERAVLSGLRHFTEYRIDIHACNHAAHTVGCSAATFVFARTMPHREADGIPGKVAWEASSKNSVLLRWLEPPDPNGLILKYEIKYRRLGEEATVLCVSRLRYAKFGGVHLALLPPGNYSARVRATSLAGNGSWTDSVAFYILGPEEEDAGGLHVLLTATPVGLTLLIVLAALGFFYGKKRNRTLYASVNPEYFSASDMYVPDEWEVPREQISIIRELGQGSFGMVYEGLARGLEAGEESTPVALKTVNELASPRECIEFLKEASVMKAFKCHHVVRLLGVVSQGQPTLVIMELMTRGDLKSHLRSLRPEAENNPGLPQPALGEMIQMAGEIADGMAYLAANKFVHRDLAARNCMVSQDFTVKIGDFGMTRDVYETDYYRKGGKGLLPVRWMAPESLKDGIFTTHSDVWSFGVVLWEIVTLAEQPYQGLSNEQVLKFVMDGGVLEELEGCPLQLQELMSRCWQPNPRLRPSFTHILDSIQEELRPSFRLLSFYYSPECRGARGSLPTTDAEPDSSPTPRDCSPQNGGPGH
Sequence of RPS6KA3 KD1 KD2 (human) (P51812 whole entry, looked up): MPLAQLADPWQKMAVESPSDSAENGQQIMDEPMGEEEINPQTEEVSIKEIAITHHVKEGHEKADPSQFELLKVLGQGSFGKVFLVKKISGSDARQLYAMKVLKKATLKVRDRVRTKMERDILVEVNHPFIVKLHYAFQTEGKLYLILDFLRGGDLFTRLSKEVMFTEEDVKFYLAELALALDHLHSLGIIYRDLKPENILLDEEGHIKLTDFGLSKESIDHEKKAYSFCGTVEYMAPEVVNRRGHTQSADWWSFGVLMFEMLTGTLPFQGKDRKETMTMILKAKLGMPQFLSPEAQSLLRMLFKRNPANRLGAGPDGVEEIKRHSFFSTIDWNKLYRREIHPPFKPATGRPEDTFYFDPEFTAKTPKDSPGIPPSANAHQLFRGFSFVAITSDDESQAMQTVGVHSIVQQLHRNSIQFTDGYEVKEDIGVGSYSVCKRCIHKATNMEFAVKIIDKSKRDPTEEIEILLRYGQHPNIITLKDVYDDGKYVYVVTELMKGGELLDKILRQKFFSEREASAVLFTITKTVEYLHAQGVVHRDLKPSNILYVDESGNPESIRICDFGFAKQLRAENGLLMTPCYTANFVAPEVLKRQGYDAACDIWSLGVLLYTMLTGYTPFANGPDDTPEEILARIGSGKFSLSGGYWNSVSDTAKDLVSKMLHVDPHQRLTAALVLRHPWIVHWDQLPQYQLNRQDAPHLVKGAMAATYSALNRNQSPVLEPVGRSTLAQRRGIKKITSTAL
Sequence of RPS6KB1 (human), P23443 [T412E] (P23443 whole entry T412E, looked up): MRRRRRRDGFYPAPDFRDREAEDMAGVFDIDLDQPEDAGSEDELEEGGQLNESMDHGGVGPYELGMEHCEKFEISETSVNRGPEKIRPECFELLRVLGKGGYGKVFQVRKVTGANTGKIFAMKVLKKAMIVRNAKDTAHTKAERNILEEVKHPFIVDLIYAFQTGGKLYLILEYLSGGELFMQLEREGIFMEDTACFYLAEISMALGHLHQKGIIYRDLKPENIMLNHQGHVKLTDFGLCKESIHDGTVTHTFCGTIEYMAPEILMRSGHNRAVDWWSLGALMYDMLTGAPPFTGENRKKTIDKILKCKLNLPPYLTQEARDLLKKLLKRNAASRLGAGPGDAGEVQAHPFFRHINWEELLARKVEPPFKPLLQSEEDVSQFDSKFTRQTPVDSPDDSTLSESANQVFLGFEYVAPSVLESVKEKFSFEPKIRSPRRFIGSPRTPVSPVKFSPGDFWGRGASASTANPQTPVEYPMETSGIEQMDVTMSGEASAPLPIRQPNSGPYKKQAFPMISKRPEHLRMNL
Sequence of EPHB1 (human) (P54762 whole entry, looked up): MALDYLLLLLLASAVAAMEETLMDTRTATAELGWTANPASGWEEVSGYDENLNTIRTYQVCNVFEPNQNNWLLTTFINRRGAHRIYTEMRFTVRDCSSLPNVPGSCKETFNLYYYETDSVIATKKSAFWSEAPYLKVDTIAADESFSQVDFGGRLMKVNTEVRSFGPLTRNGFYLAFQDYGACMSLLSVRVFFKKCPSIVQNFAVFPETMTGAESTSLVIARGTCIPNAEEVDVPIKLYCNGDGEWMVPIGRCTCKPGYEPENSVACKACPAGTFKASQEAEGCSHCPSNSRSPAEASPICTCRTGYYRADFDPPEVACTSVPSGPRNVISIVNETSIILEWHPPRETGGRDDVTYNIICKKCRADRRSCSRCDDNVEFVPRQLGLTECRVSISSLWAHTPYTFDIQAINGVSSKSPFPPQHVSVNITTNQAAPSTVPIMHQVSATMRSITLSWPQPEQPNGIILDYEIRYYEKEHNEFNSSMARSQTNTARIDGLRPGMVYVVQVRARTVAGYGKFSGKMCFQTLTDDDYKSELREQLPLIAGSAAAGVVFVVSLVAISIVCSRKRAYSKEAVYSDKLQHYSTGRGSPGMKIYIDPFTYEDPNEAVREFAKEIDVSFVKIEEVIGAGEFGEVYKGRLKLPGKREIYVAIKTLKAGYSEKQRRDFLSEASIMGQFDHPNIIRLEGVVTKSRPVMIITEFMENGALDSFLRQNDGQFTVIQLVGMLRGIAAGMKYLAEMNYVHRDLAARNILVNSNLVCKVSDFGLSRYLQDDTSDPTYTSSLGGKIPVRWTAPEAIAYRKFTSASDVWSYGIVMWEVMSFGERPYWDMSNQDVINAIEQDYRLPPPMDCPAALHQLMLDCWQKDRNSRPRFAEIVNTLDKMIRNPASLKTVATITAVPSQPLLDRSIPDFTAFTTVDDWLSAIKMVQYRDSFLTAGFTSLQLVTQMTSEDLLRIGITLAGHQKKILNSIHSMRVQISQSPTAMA
Sequence of CSNK1D (human) (P48730 whole entry, looked up): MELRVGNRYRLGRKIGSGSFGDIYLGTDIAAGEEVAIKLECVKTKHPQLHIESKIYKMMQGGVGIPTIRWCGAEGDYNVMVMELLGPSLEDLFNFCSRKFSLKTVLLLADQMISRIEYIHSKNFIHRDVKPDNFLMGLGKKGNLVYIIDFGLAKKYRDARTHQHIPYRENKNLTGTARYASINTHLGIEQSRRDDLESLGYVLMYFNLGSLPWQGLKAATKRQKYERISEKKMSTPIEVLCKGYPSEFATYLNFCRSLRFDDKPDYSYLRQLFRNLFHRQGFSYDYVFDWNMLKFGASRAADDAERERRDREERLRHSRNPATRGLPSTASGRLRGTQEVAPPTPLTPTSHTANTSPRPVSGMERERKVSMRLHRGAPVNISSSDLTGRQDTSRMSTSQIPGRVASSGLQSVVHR
Sequence of NEK2 (human) (P51955 whole entry, looked up): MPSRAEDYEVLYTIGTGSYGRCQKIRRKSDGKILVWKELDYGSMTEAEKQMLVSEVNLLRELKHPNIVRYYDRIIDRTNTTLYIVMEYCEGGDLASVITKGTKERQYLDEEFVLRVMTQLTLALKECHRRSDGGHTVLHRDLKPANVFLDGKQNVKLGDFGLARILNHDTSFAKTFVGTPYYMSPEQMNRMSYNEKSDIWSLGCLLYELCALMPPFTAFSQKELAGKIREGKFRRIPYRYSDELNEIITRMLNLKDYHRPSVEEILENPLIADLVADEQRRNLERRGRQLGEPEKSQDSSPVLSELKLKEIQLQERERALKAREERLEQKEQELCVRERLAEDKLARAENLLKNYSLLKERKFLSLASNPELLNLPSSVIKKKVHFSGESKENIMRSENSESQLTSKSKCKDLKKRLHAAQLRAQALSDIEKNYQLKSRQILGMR

`CCNc1nc(Nc2cc(F)c(C(=O)N3CCOCC3)cc2OC)ncc1C(F)(F)F` was tested. Which residual activity (PIM2 (human)) did it give?
Its residual activity is 93%.

What about the residual activity (PAK7 (human); compound 1.0 µM) of the same molecule?
The residual activity was 95%.

What about the residual activity (PAK7 (human); compound 10.0 µM) of the same molecule?
Its residual activity is 56%.

What about the residual activity (IKBKB (human); compound 1.0 µM) of the same molecule?
The residual activity was 91%.

And the residual activity (IKBKB (human); compound 10.0 µM)?
The residual activity was 93%.

And the residual activity (RPS6KA5 KD1 KD2 (human); compound 1.0 µM)?
The residual activity was 91%.

And the residual activity (RPS6KA5 KD1 KD2 (human); compound 10.0 µM)?
The residual activity was 49%.

What about the residual activity (NEK6 (human); compound 1.0 µM) of the same molecule?
The residual activity was 103%.

What about the residual activity (NEK6 (human); compound 10.0 µM) of the same molecule?
Its residual activity is 84%.

And the residual activity (IKBKE (human); compound 1.0 µM)?
The residual activity was 78%.

What about the residual activity (IKBKE (human); compound 10.0 µM) of the same molecule?
Its residual activity is 23%.

And the residual activity (MAPK3 (human); compound 1.0 µM)?
Its residual activity is 85%.

What about the residual activity (MAPK3 (human); compound 10.0 µM) of the same molecule?
The residual activity was 54%.

And the residual activity (BTK (human); compound 1.0 µM)?
Its residual activity is 131%.

And the residual activity (BTK (human); compound 10.0 µM)?
Its residual activity is 90%.

What about the residual activity (EPHA4 (human); compound 1.0 µM) of the same molecule?
Its residual activity is 97%.

What about the residual activity (EPHA4 (human); compound 10.0 µM) of the same molecule?
Its residual activity is 76%.

What about the residual activity (MAP2K1 (human); compound 1.0 µM) of the same molecule?
The residual activity was 95%.

And the residual activity (MAP2K1 (human); compound 10.0 µM)?
The residual activity was 75%.

And the residual activity (RIPK2 (human); compound 1.0 µM)?
The residual activity was 86%.

And the residual activity (RIPK2 (human); compound 10.0 µM)?
Its residual activity is 74%.

What about the residual activity (NEK2 (human); compound 1.0 µM) of the same molecule?
Its residual activity is 99%.

And the residual activity (NEK2 (human); compound 10.0 µM)?
The residual activity was 92%.

What about the residual activity (MAPK15 (human); compound 1.0 µM) of the same molecule?
Its residual activity is 96%.

What about the residual activity (MAPK15 (human); compound 10.0 µM) of the same molecule?
The residual activity was 78%.

What about the residual activity (CHEK2 (human); compound 1.0 µM) of the same molecule?
Its residual activity is 12%.

What about the residual activity (CHEK2 (human); compound 10.0 µM) of the same molecule?
Its residual activity is 2%.

And the residual activity (RPS6KA1 KD1 KD2 (human); compound 1.0 µM)?
The residual activity was 21%.

What about the residual activity (RPS6KA1 KD1 KD2 (human); compound 10.0 µM) of the same molecule?
The residual activity was 8%.

What about the residual activity (SRC (human); compound 1.0 µM) of the same molecule?
Its residual activity is 87%.

And the residual activity (SRC (human); compound 10.0 µM)?
Its residual activity is 83%.

What about the residual activity (INSRR (human); compound 1.0 µM) of the same molecule?
The residual activity was 90%.

What about the residual activity (INSRR (human); compound 10.0 µM) of the same molecule?
The residual activity was 67%.

And the residual activity (MAPK1 (human); compound 1.0 µM)?
The residual activity was 99%.

And the residual activity (MAPK1 (human); compound 10.0 µM)?
The residual activity was 71%.

And the residual activity (RPS6KA3 KD1 KD2 (human); compound 1.0 µM)?
Its residual activity is 34%.

What about the residual activity (RPS6KA3 KD1 KD2 (human); compound 10.0 µM) of the same molecule?
The residual activity was 9%.

What about the residual activity (CSNK1D (human); compound 1.0 µM) of the same molecule?
Its residual activity is 98%.

What about the residual activity (CSNK1D (human); compound 10.0 µM) of the same molecule?
Its residual activity is 81%.

What about the residual activity (CSK (human); compound 1.0 µM) of the same molecule?
The residual activity was 101%.

What about the residual activity (CSK (human); compound 10.0 µM) of the same molecule?
Its residual activity is 94%.

What about the residual activity (MAPKAPK3 (human); compound 1.0 µM) of the same molecule?
Its residual activity is 91%.

What about the residual activity (MAPKAPK3 (human); compound 10.0 µM) of the same molecule?
The residual activity was 108%.

And the residual activity (PRKAA1 or PRKAA2 (rat); compound 1.0 µM)?
The residual activity was 75%.

And the residual activity (PRKAA1 or PRKAA2 (rat); compound 10.0 µM)?
The residual activity was 56%.

What about the residual activity (PLK1 (human); compound 1.0 µM) of the same molecule?
Its residual activity is 76%.

What about the residual activity (PLK1 (human); compound 10.0 µM) of the same molecule?
The residual activity was 39%.

And the residual activity (FLT1 (human); compound 1.0 µM)?
The residual activity was 62%.

What about the residual activity (FLT1 (human); compound 10.0 µM) of the same molecule?
Its residual activity is 13%.

And the residual activity (EPHB1 (human); compound 1.0 µM)?
Its residual activity is 100%.

And the residual activity (EPHB1 (human); compound 10.0 µM)?
Its residual activity is 90%.

And the residual activity (CDK2 CCNA2 (human); compound 1.0 µM)?
The residual activity was 102%.

What about the residual activity (CDK2 CCNA2 (human); compound 10.0 µM) of the same molecule?
The residual activity was 79%.

What about the residual activity (TTK (human); compound 1.0 µM) of the same molecule?
Its residual activity is 52%.

What about the residual activity (TTK (human); compound 10.0 µM) of the same molecule?
The residual activity was 32%.

And the residual activity ([1]; compound 1.0 µM)?
The residual activity was 89%.

What about the residual activity ([1]; compound 10.0 µM) of the same molecule?
Its residual activity is 60%.

What about the residual activity ([2]; compound 1.0 µM) of the same molecule?
Its residual activity is 92%.

What about the residual activity ([2]; compound 10.0 µM) of the same molecule?
Its residual activity is 95%.

What about the residual activity (EPHB4 (human); compound 1.0 µM) of the same molecule?
The residual activity was 96%.

And the residual activity (EPHB4 (human); compound 10.0 µM)?
The residual activity was 87%.

What about the residual activity (SYK (human); compound 1.0 µM) of the same molecule?
The residual activity was 70%.

What about the residual activity (SYK (human); compound 10.0 µM) of the same molecule?
The residual activity was 33%.

And the residual activity (PRKACA (human))?
Its residual activity is 96%.

What about the residual activity (MKNK2 (human); compound 1.0 µM) of the same molecule?
Its residual activity is 62%.

What about the residual activity (MKNK2 (human); compound 10.0 µM) of the same molecule?
Its residual activity is 23%.

What about the residual activity (MAPK14 (human); compound 1.0 µM) of the same molecule?
Its residual activity is 89%.

And the residual activity (MAPK14 (human); compound 10.0 µM)?
Its residual activity is 101%.
